“Also recorded” adds a separate entry of the source.
Experiments:
C57BL/6 wild type mice [1] = test: Blood pressure by tail cuff method at 8 weeks after the second surgery; assay type: in vivo, mouse
Protocol: Systolic blood pressure at 8 weeks after the second surgery.
(§1) Experiment of C57BL/6 wild type mice. Mice underwent 5/6 nephrectomy surgery. Mice were fed 14% protein diet (0 weeks to 2 weeks), 23% protein diet (2 weeks to 6 weeks), and 40% protein diet (6 weeks to 8 weeks). Mice drank 1% NaCl water one week to six weeks after second surgery, and dimethylthiourea (DMTU; UT-A inhibitor) was administered by osmotic mini pump.
(§2) Since an increase in UT-A is associated with an increase in fibrosis proteins in vitro and in vivo, experiments were performed to determine whether inhibition of UT-A could prevent fibrosis in the heart of CKD mice. Mice were randomly divided into four cohorts: sham+vehicle, sham+DMTU, 5/6Nx+vehicle, and 5/6Nx+DMTU. Mini-pumps were used for DMTU administration (100 mg/kgBW/day). The phenotypic characteristics of mice were determined 8 weeks after completing the 5/6Nx (Table 1).

UT-A1 = target: T1, UT-A1 (Homo sapiens, UniProt Q15849); conditions: cited from earlier work
T1 sequence (Q15849 1-920): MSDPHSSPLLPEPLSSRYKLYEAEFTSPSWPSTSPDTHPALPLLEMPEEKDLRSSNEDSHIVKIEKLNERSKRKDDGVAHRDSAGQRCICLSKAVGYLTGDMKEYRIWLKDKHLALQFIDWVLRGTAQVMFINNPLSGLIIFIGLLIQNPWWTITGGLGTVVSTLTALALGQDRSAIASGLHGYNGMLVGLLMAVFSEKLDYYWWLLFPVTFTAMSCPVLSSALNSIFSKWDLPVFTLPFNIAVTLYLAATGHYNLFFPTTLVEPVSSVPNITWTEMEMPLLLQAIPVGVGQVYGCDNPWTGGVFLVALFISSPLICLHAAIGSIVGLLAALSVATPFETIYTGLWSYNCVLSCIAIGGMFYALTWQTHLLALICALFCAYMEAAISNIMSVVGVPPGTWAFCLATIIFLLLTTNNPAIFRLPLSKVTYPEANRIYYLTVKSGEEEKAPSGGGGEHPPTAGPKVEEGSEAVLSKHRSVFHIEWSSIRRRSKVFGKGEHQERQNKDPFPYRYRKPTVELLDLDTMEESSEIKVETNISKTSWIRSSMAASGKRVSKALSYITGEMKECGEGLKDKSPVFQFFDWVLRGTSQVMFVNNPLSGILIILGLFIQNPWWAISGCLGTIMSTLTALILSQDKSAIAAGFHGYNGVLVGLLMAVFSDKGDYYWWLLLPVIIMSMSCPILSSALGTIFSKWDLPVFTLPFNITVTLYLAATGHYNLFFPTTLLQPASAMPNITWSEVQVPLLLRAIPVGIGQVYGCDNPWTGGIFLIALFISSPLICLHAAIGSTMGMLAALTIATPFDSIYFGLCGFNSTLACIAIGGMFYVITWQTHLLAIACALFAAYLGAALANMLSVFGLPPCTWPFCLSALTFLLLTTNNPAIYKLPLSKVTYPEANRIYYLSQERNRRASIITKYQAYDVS

C57BL/6 wild type mice [2] = test: Phenotypic characteristics of sham and 5/6Nx mice 8 weeks after 5/6 nephrectomy, DMTU by osmotic mini pump; assay type: in vivo, mouse; conditions: for 24 hr intake volume/BW / 24 hr urine osmolality / 24 hr urine volume/BW / BUN / Plasma osmolality / Urine urea / Volume in-out balance/BW: 8 weeks
Protocol: as §1, §2

UT-B = target: T2, UT-B (Homo sapiens, UniProt Q13336); conditions: cited from earlier work
T2 sequence (Q13336 1-389): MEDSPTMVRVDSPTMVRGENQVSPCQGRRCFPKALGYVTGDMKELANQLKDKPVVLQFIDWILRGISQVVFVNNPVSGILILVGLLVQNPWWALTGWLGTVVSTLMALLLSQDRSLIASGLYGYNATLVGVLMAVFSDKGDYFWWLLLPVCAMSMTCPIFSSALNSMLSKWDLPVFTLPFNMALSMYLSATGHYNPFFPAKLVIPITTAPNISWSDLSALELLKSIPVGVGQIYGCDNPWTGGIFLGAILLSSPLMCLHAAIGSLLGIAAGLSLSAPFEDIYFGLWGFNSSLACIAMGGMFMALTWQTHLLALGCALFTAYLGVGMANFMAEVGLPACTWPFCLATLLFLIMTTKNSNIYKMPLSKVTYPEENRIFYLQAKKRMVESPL

C57BL/6 wild type mice [3] = test: Heart size and heart weight at sacrifice (cardiac hypertrophy); assay type: in vivo, mouse
Protocol: White bar is vehicle and black bar is DMTU treatment.
as §1, §2
Inhibition of UT-A suppressed CKD-induced increases in SBP in 5/6Nx mice (5/6Nx+DMTU: 119±3 mmHg vs 5/6Nx+vehicle: 130±2 mmHg, P<0.05) (FIG. 3A). […] DMTU suppressed the CKD-induced increase in heart weight (5/6Nx+DMTU: 3.74±0.12 mg/g vs 5/6Nx+vehicle: 4.50±0.09 mg/g, P<0.001) (FIG. 3D). Since the BW could be altered by either edema (in CKD) or dehydration (by DMTU), dry brain weight was also used to normalize heart weight.

Rats = conditions: cited from earlier work
C57BL/6 wild type mice [4] = test: Cardiac echocardiographic analysis of mice after 5/6 nephrectomy and DMTU treatment; assay type: in vivo, mouse; conditions: for LVEDV: LV end-diastolic volume; for LVESD: LV end-systolic dimension; for LVESV: LV end-systolic volume; for FS: fractional shortening; for IVSd / IVSs: intraventricular septum; for PWd / PWs: posterior wall thickness; for LVMI: ratio of LVM to BW
Protocol: as §1, §2
Both intraventricular septum (IVS) and posterior wall thicknesses (PW) were greatest in 5/6Nx+vehicle than all other three groups (Table 2).

C57BL/6 wild type mice [5] = test: Masson's Trichrome staining of mouse heart tissues, fibrosis area; assay type: in vivo; conditions: 5/6Nx + DMTU, 5/6Nx+vehicle 1.04±0.15
Protocol: Pictures were observed by ×200 magnification. Scale bar is 100 μm. Dark color indicated fibrosis in Masson's staining.
as §1, §2

C57BL/6 wild type mice [6] = test: Quantitative mRNA expression in mouse hearts by real-time PCR; assay type: in vivo
Protocol: FIG. 4E show quantitative mRNA expression in mouse hearts performed by real-time PCR. Individual gene expression was calculated by ΔΔcq and standardized by housekeeping gene 18s.
Angiotensin converting enzyme (ACE) gene expression was calculated by ΔΔcq and standardized by housekeeping gene 18s.
as §1
Since an increase in UT-A is associated with an increase in fibrosis proteins in vitro and in vivo, experiments were performed to determine whether inhibition of UT-A could prevent fibrosis in the heart of CKD mice. […] The phenotypic characteristics of mice were determined 8 weeks after completing the 5/6Nx (Table 1).
In uremic cardiomyopathy, increased cardiac fibrosis and hypertrophy are associated with upregulation of the renin-angiotensin system (RAS). To identify whether the ability of UT-A to reduce cardiac fibrosis is related to the RAS, the mRNA expression of angiotensin converting enzyme (ACE) was measured in the heart of 4 groups of mice.

C57BL/6 wild type mice [7] = test: Immunohistochemistry staining of heart for collagen type 1 and α-SMA; assay type: in vivo, mouse; conditions: 5/6Nx + DMTU compared with 5/6Nx + vehicle
Protocol: as §1, §2

## CNC(=S)NC [DMTU, N,N′-dimethylthiourea]
C57BL/6 wild type mice [1]; 5/6Nx + DMTU, 8 weeks, vs 5/6Nx+vehicle 130±2, P<0.05
  SBP (systolic blood pressure): 119±3 mmHg
C57BL/6 wild type mice [1]; sham or 5/6Nx mice
  Effect on DBP (diastolic blood pressure): did not affect DBP
UT-A1
  Inhibition of UT-A1: inhibits
C57BL/6 wild type mice [2]; 5/6Nx + DMTU
  Volume in-out balance relative to 5/6Nx+vehicle: the balance was less
  24 hr intake volume/BW: 0.265 ± 0.028 mL/g
  24 hr urine osmolality: 1206 ± 116 mOsmol/kg H2O
  24 hr urine volume/BW: 0.170 ± 0.013 mL/g
  BUN: 63.7 ± 4.6 mg/dL
  Plasma osmolality: 329 ± 3 mOsmol/kg H2O
  Urine urea: 926 ± 95 mmol/L
  Volume in-out balance/BW: 0.114 ± 0.014 mL/g
C57BL/6 wild type mice [2]; CKD mice
  Increase of urine volume and decrease of urine osmolality: absent
C57BL/6 wild type mice [2]; either sham or CKD mice
  BUN values with DMTU treatment vs. vehicle treatment: no significant difference
C57BL/6 wild type mice [2]; sham + DMTU
  24 hr intake volume/BW: 0.129 ± 0.006 mL/g
  24 hr urine osmolality: 2378 ± 133 mOsmol/kg H2O
  24 hr urine volume/BW: 0.058 ± 0.010 mL/g
  BUN: 31.3 ± 2.8 mg/dL
  Plasma osmolality: 322 ± 1 mOsmol/kg H2O
  Urine urea: 1555 ± 128 mmol/L
  Volume in-out balance/BW: 0.081 ± 0.010 mL/g
C57BL/6 wild type mice [2]; sham mice
  Effect on urine osmolality: decreased urine osmolality
  Effect on urine volume: increased urine volume
UT-B
  Inhibition of UT-B: inhibits
C57BL/6 wild type mice [3]; 5/6Nx + DMTU, vs 5/6Nx+vehicle 1.34±0.09, P<0.01
  Ratio of heart weight to dry brain weight: 1.04 ± 0.04 mg/mg
C57BL/6 wild type mice [3]; 5/6Nx + DMTU, vs 5/6Nx+vehicle 4.50±0.09, P<0.001
  Ratio of heart weight/body weight (BW): 3.74 ± 0.12 mg/g
C57BL/6 wild type mice [3]; 5/6Nx mice, at sacrifice
  CKD-induced increase in heart size: suppressed the CKD-induced increase in heart size
Rats
  Diuresis compared with furosemide: greater diuresis
  Side effects like hyponatremia or hypokalemia: did not show side effects
C57BL/6 wild type mice [4]; 5/6Nx + DMTU
  CKD-induced increases of LVESD, LVEDV, LVESV and LVMI: eliminated these increases
  LVEDD: 3.43 ± 0.06 mm
  LVM: 89 ± 3 mg
  LVEDV: 62.6 ± 0.3 µL
  LVESD: 2.77 ± 0.02 mm
  LVESV: 23.6 ± 0.3 µL
  FS: 30 ± 0.5 %
  IVSd: 0.49 ± 0.01 mm
  IVSs: 1.08 ± 0.00 mm
  PWd: 0.55 ± 0.01 mm
  PWs: 0.52 ± 0.01 mm
  LVMI: 3.44 ± 0.13 mg/g
C57BL/6 wild type mice [4]; CKD heart
  Percentage of fractional shortening (FS), effect: restored FS to the normal range
C57BL/6 wild type mice [4]; mice of the cohorts other than 5/6Nx+vehicle (incl. sham+DMTU, 5/6Nx+DMTU)
  Pericardial effusion: none of the mice
C57BL/6 wild type mice [4]; sham + DMTU
  LVEDD: 3.80 ± 0.18 mm
  LVM: 97 ± 7 mg
  LVEDV: 57.3 ± 1.8 µL
  LVESD: 2.45 ± 0.14 mm
  LVESV: 21.8 ± 1.1 µL
  FS: 33 ± 0.5%
  IVSd: 0.44 ± 0.00 mm
  IVSs: 1.05 ± 0.00 mm
  PWd: 0.53 ± 0.00 mm
  PWs: 0.52 ± 0.03 mm
  LVMI: 3.73 ± 0.15 mg/g
C57BL/6 wild type mice [5]
  Percentage of fibrosis area in heart: 0.57±0.07%
C57BL/6 wild type mice [6]; 5/6Nx + DMTU compared with 5/6Nx + vehicle
  mRNA expression of fibrosis related genes (collagen 1A1, collagen 4A1, fibronectin and α-SMA) in heart: less than 5/6Nx+vehicle mice
C57BL/6 wild type mice [6]; sham and 5/6Nx groups, DMTU vs vehicle
  mRNA expression of angiotensin converting enzyme (ACE) in heart: significantly abolished ACE expression; also recorded: suppressed an increase in ACE mRNA expression
C57BL/6 wild type mice [7]
  Collagen type I and α-smooth muscle actin (SMA) proteins in heart: less
